Data taken from US5688913A, “CS-1 peptidomimetics, compositions and methods of using the same” (Cytel Corporation, priority 1995, dated 1997).
Numbered stars: 1 amine (or outer) side, 2 acyl side, 3 side chain; on linkers, the order of the positions; unused ones are H or OH. Square brackets hold non-standard residues; d marks the D form. Peptide text beside a SMILES is read from it. * marks the point of attachment. Quinoline3carbonyl = O=C(c1cnc2ccccc2c1)*; Benzenesulfonyl = O=S(=O)(c1ccccc1)*; Acetyl(3-pyridyl) = O=C(Cc1cccnc1)*; Pyrazinecarbonyl = O=C(c1cnccn1)*; Quinaldoyl = O=C(c1ccc2ccccc2n1)*; Brosyl = O=S(=O)(c1ccc(Br)cc1)*; X15 = O=S(=O)(c1cccc2cccnc12)*; Nicotinoyl = O=C(c1cccnc1)*; X19 = O=C(Cc1ccc(Br)cc1)*; Piperidide = C1CCN(*)CC1; Pyrrolidide = C1CCN(*)C1; Cbz = O=C(OCc1ccccc1)*; NHDecyl = CCCCCCCCCCN*; PhAc = O=C(Cc1ccccc1)*; X14 = O=C(c1cc[nH]n1)*; CO = O=C([*:1])[*:2]; Bz = O=C(c1ccccc1)*; NHPh = c1ccc(N*)cc1; NHBu = CCCCN*

Target: VLA-4 (Homo sapiens, UniProt P05556+P13612)
Test: cell-based
Assay type: cell-based
Parameters: host or cells: Jurkat (human T lymphoblastic line)
Conditions: not given
Description: Binding inhibition is measured here as a concentration of peptide that inhibits one-half the binding between a standard number of Jurkat cells and a standard amount of CS-1 peptide bound to the surface of a microtiter plate well. Those concentrations are conveniently expressed as IC50 values, smaller numbers indicating a lower concentration required to inhibit 50 percent binding and therefore greater potency. Further specifics of this assay are provided hereinafter.
Jurkat cells (ATCC TIB 152), a human T lymphoblastic line, labeled with ^51 chromium were used to assay in vitro binding inhibition provided by various peptides discussed herein.
The plates were prepared as follows: The 25-mer CS-1 peptide (SEQ ID NO:1) dissolved at 0.5-1 μg/ml in a buffer of 0.1M NaHCO3 at pH 9.5 that also contained 10 μg/ml of bovine serum albumin (BSA) or a conjugate of the CS-1 peptide linked to ovalbumin (CS-1-OVA) dissolved at 1-2.5 μg/ml in the same buffer was used as the substrate. Each well of the microtiter plates was coated with 50 μl of substrate or buffer alone for controls. The wells were permitted to dry out completely and were then rinsed twice with PBS at pH 7.4. Non-specific binding sites of each well were then blocked using 200 μl per well of RPMI/1 percent BSA for two hours at room temperature. Both solid phase-affixed substrates provided similar results.
Jurkat cells (3-5×10^6 cells) were placed into a 15 ml Falcon™ round-bottom tube with a cap. The tube was centrifuged, and the extra medium was then removed.
Two hundred microliters of a ^51 Cr labeling solution were added to the centrifuged cells and maintained in contact with the cells for 90-120 minutes in a warm room. This procedure typically provides about 50,000-100,000 cpm/well with about 80-100 percent cell viability. Longer contact times provide a greater amount of labeling but lower cell viability.
The labeled cells are washed with (i) complete medium, (ii) 1 mM EDTA/PBS and then (iii) RPM1/1 percent BSA free of serum components. The cells are centrifuged after each washing. The cells are finally resuspended in serum-free RPMI/1 percent BSA at a concentration of 1×10^6 viable cells/ml, which provides a concentration that is diluted by one-half in the assay.
Inhibitor peptides are prepared as stock solutions at 20 mg/ml in DMSO in 1.5 ml cryogenic screwcap vials, and were stored at -70° C. Using Flow™ round-bottom or V-bottom microtiter plates, the inhibitor peptides were prepared at twice the assay concentration in RPMI/1 percent BSA at 60 μl well.
Four initial dilutions were typically used.
The ^51 Cr-labeled cells (1×10^6 cells at 60 μl/well) were then admixed with the diluted peptide solutions. The admixtures were maintained at room temperature (about 22° C.) for 30 minutes.
One hundred microliters of each inhibitor peptide/cell admixture were transferred to the substrate-coated wells. This was done in triplicate for each dilution. The resulting plates were incubated for 30 minutes at 37° C. and then washed gently three times with RPMI/1 percent BSA at 200 μl/well. Binding was observed microscopically, particularly after the second wash.
The bound cells were then lysed by the addition of a 0.5 percent solution of sodium dodecylsulfate in water at 100 μ/l well. The resulting solutions were then processed for counting and calculation of IC50 values following usual procedures. Appropriate positive and negative controls were used with each plate so that the results of separate assays could be normalized and compared.
The data of Table 1 are so normalized.

Chain of VLA-4 (P13612 34-1032): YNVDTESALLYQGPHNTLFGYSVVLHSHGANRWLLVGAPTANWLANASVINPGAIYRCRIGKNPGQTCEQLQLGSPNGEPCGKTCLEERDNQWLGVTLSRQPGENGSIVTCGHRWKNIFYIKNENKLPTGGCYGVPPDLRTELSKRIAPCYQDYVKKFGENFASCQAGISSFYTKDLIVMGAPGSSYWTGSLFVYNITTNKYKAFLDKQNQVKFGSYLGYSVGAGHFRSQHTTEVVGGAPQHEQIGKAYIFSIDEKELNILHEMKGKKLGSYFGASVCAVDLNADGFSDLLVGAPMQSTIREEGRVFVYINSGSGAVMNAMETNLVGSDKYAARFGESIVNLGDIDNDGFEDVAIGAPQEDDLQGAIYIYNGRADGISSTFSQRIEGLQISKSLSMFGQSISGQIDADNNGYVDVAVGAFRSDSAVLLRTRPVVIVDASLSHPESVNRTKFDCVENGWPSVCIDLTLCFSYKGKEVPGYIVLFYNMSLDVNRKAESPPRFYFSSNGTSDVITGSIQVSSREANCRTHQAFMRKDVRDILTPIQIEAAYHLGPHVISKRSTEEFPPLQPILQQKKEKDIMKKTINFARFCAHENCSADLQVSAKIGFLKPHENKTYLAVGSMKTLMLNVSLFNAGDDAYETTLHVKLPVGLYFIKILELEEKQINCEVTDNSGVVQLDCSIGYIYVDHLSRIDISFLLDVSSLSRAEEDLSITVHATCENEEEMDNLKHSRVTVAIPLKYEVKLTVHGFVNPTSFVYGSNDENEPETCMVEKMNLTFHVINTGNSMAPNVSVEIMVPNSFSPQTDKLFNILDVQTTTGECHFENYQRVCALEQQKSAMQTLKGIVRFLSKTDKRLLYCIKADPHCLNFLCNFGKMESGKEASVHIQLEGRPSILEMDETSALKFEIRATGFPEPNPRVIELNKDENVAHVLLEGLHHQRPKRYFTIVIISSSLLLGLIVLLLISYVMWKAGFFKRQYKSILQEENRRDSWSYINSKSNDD
Chain of VLA-4 (P05556 21-798): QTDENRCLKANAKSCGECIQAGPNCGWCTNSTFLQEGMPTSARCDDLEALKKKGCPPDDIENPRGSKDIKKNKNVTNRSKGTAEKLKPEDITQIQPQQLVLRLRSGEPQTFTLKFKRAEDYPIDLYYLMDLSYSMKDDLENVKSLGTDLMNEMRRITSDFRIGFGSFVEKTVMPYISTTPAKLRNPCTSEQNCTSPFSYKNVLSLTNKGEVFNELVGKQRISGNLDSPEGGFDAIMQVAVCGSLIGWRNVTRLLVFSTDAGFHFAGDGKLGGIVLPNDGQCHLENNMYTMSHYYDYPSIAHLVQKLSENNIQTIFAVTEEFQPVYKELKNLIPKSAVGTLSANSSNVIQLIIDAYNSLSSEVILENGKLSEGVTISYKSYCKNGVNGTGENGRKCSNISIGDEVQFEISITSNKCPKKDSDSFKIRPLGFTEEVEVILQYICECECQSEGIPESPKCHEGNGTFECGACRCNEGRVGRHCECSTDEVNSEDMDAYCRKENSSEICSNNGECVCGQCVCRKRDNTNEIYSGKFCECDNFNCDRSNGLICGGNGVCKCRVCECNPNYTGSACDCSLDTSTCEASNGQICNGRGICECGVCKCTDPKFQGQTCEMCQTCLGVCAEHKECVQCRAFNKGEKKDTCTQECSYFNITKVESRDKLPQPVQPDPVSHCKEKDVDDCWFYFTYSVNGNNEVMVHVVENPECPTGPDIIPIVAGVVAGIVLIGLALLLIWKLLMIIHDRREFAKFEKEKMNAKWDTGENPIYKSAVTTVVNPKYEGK

Structure (SMILES)	RELATIVE POTENCY (relative peptide inhibition of VLA-4 binding CS-1)
CC[C@H](C)[C@H](N)C(=O)N[C@@H](CC(C)C)C(=O)N[C@@H](CC(=O)O)C(=O)N[C@H](C(=O)N1CCC[C@H]1C(=O)N[C@H](C(=O)N[C@@H](CC(C)C)C(=O)N[C@@H](CC(=O)O)C(=O)N[C@H](C(=O)N1CCC[C@H]1C(N)=O)C(C)C)[C@@H](C)CC)C(C)C [I L D V P I L D V P free amine amide] (H-ILDVPILDVP-NH2)	2
CC[C@H](C)[C@H](N)C(=O)N[C@@H](CC(C)C)C(=O)N[C@@H](CC(=O)O)C(=O)N[C@H](C(=O)N1CCC[C@H]1C(=O)O)C(C)C [I L D V P free amine free acid, reference compound] (H-ILDVP-OH)	1
CC(C)C[C@H](N)C(=O)N[C@@H](CC(=O)O)C(=O)N[C@@H](Cc1ccccc1)C(=O)N1CCCCC1 [L D F Z free amine piperidinamide] (H-Leu-Asp-Phe-Piperidide)	0
CC(=O)N[C@@H](CC(C)C)C(=O)N[C@@H](CC(=O)O)C(=O)N[C@@H](Cc1ccccc1)C(N)=O [L D F acetyl amide] (Ac-Leu-Asp-Phe-NH2)	< 1
CC(C)C[C@H](N)C(=O)N[C@@H](CC(=O)O)C(=O)N[C@@H](Cc1ccccc1)C(N)=O [L D F free amine amide] (H-Leu-Asp-Phe-NH2)	0
CC(=O)N[C@@H](CC(C)C)C(=O)N[C@@H](CC(=O)O)C(=O)N[C@H](C(N)=O)C(C)C [L D V acetyl amide, reference compound] (Ac-Leu-Asp-Val-NH2)	1
CC(C)C[C@H](N)C(=O)N[C@@H](CC(=O)O)C(=O)N[C@H](C(N)=O)C(C)C [L D V free amine amide, reference compound] (H-Leu-Asp-Val-NH2)	0
CC(=O)N[C@@H](CO)C(=O)N[C@@H](Cc1ccccc1)C(=O)N[C@@H](CC(=O)O)C(=O)N[C@@H](Cc1ccccc1)C(=O)N[C@@H](CO)C(N)=O [S F D F S acetyl amide] (Ac-SFDFS-NH2)	< 1
CC(C)C[C@H](NCc1ccccc1)C(=O)N[C@@H](CC(=O)O)C(=O)N[C@@H](Cc1ccccc1)C(=O)N1CCCCC1 [X L D F Z benzyl piperidinamide]	6
CC(C)C[C@H](NC(=O)c1ccc2ccccc2n1)C(=O)N[C@@H](CC(=O)O)C(=O)N[C@@H](Cc1ccccc1)C(=O)N1CCC[C@@H]1C(N)=O [X L D F p 2-quinolinecarbonyl amide] (Quinaldoyl-LDF[dP]-NH2)	4
CC(C)C[C@H](NC(=O)Nc1ccccc1)C(=O)N[C@@H](CC(=O)O)C(=O)N[C@@H](Cc1ccccc1)C(=O)N1CCC[C@@H]1C(N)=O [X L D F p anilinocarbonyl amide] ({NHPh-CO}-LDF[dP]-NH2)	227

Now from value to compound:

RELATIVE POTENCY (relative peptide inhibition of VLA-4 binding CS-1)	Structure (SMILES)
9	CC(C)C[C@H](NC(=O)c1cnccn1)C(=O)N[C@@H](CC(=O)O)C(=O)N[C@@H](Cc1ccccc1)C(=O)N1CCC[C@@H]1C(N)=O [X L D F p 2-pyrazinecarbonyl amide] (Pyrazinecarbonyl-LDF[dP]-NH2)
56	CC(C)C[C@H](NC(=O)c1cnc2ccccc2c1)C(=O)N[C@@H](CC(=O)O)C(=O)N[C@@H](Cc1ccccc1)C(=O)N1CCC[C@@H]1C(N)=O [X L D F p 3-quinolinecarbonyl amide] (Quinoline3carbonyl-LDF[dP]-NH2)
< 1	CC(C)C[C@H](NS(=O)(=O)c1ccc(Br)cc1)C(=O)N[C@@H](CC(=O)O)C(=O)N[C@@H](Cc1ccccc1)C(=O)N1CCC[C@@H]1C(N)=O [X L D F p 4-bromophenylsulfonyl amide] (Brosyl-LDF[dP]-NH2)
3	CC(C)C[C@H](NS(=O)(=O)c1cccc2cccnc12)C(=O)N[C@@H](CC(=O)O)C(=O)N[C@@H](Cc1ccccc1)C(=O)N1CCC[C@@H]1C(N)=O [X L D F p 8-quinolinesulfonyl amide] (X15-LDF[dP]-NH2)
34	CC(C)C[C@H](NC(=O)OCc1ccccc1)C(=O)N[C@@H](CC(=O)O)C(=O)N[C@@H](Cc1ccccc1)C(=O)N1CCC[C@@H]1C(N)=O [X L D F p benzyloxycarbonyl amide] (Cbz-LDF[dP]-NH2)
3	CC(C)C[C@H](NC(=O)Cc1ccc(Br)cc1)C(=O)N[C@@H](CC(=O)O)C(=O)N[C@@H](Cc1ccccc1)C(=O)N1CCC[C@@H]1C(N)=O [X L D F p p-bromophenylacetyl amide] (X19-LDF[dP]-NH2)
0	CC(C)C[C@H](NS(=O)(=O)c1ccccc1)C(=O)N[C@@H](CC(=O)O)C(=O)N[C@@H](Cc1ccccc1)C(=O)N1CCC[C@@H]1C(N)=O [X L D F p phenylsulfonyl amide] (Benzenesulfonyl-LDF[dP]-NH2)
35	CC(C)C[C@H](NC(=O)c1cc[nH]n1)C(=O)N[C@@H](CC(=O)O)C(=O)N[C@@H](Cc1ccccc1)C(=O)N1CCC[C@@H]1C(N)=O [X L D F p pyrazolecarbonyl amide] (X14-LDF[dP]-NH2; N-terminus assumed)
469	CC(C)C[C@H](NC(=O)Cc1cccnc1)C(=O)N[C@@H](CC(=O)O)C(=O)N[C@@H](Cc1ccccc1)C(=O)N1CCC[C@@H]1C(N)=O [X L D F p pyridine-3-acetyl amide] ({Acetyl(3-pyridyl)}-LDF[dP]-NH2)
201	CC(C)C[C@H](NC(=O)c1cccnc1)C(=O)N[C@@H](CC(=O)O)C(=O)N[C@@H](Cc1ccccc1)C(=O)N1CCC[C@@H]1C(N)=O [X L D F p pyridine-3-carbonyl amide] (Nicotinoyl-LDF[dP]-NH2)

Same assay, conditions: normalized IC50 relative to standard peptide of SEQ ID NO:3 (=1); about one-tenth or less of the standard is assigned zero

Structure (SMILES)	RELATIVE POTENCY (relative peptide inhibition of VLA-4 binding CS-1)
CC(C)C[C@H](NC(=O)[C@H](CC(=O)O)NC(=O)Cc1ccccc1)C(=O)N[C@@H](Cc1ccccc1)C(=O)N1CCC[C@@H]1C(N)=O [X D L F p phenylacetyl amide, N-phenylacetyl-Asp-Leu-Phe-D-Pro-NH2, reference compound] (PhAc-DLF[dP]-NH2)	< 1
CCCCCCCCCCNC(=O)[C@@H]1CCCN1C(=O)[C@H](Cc1ccccc1)NC(=O)[C@H](CC(=O)O)NC(=O)[C@H](CC(C)C)NC(=O)Cc1ccccc1 [X L D F P Z phenylacetyl decylamide] (PhAc-LDFP-NHDecyl)	2
CCCCNC(=O)[C@H](Cc1ccccc1)NC(=O)[C@H](CC(=O)O)NC(=O)[C@H](CC(C)C)NC(=O)Cc1ccccc1 [X L D F Z phenylacetyl n-butylamide] (PhAc-Leu-Asp-Phe-NHBu)	3
CC(C)C[C@H](NC(=O)Cc1ccccc1)C(=O)N[C@@H](CC(=O)O)C(=O)N[C@@H](Cc1ccccc1)C(=O)N1CCNCC1 [X L D F Z phenylacetyl piperazinamide]	506
CC(C)C[C@H](NC(=O)Cc1ccccc1)C(=O)N[C@@H](CC(=O)O)C(=O)N[C@@H](Cc1ccccc1)C(=O)N1CCCC1 [X L D F Z phenylacetyl pyrrolidinamide] (PhAc-Leu-Asp-Phe-Pyrrolidide)	250
CC(C)C[C@H](NC(=O)c1ccccc1)C(=O)N[C@@H](CC(=O)O)C(=O)N[C@@H](Cc1ccccc1)C(=O)N1CCC[C@@H]1C(N)=O [X L D F p benzoyl amide] (Bz-LDF[dP]-NH2)	75

Same assay, conditions: normalized IC50 relative to standard peptide of SEQ ID NO:3 (=1); about one-tenth or less of the standard is assigned zero; listed as Leu-Asp-Val (LDV) N-free amine C-amide

RELATIVE POTENCY (relative peptide inhibition of VLA-4 binding CS-1)	Structure (SMILES)
zero	CC(C)C[C@H](N)C(=O)N[C@@H](CC(=O)O)C(=O)N[C@H](C(N)=O)C(C)C [L D V free amine amide, reference compound] (H-Leu-Asp-Val-NH2)
